The record followed here is patent publication US5945436A, “Pyridylmethyl nitriles, amides and thioamides useful as fungicides” (Uniroyal Chemical Company, Inc., priority 1997, dated 1999).

As usually defined, the inhibition is the percentage by which the read-out fell short of the control.

Assay [1] deals with Erysiphe cichoracearum. Briefly: Powdery mildew of cucumber, systemic root uptake (CMS). Type of assay: in vivo. Conditions: 45 ml of 250 mg/l, 8 days after inoculation. The procedure: (§1) Compositions containing Compounds Nos. 1-81 were prepared by dissolving 0.24 grams of each of the compounds in 8 ml of acetone or other suitable inert solvent. Each of the resultant solutions was treated with 3 drops of TWEEN 20 (ethoxylated ethylene sorbitan monolaurate, a non-ionic surfactant)(I.C.I.), and water was added to form an emulsion. The degree of dilution with water was dictated by the desired concentration of the compound in the composition. The greater the quantity of water added, the lower the concentration of the compound in the composition, reported in milligrams per liter (mg/l) […] Upon reaching these ages, the plants were either treated with 45 ml of 250 mg/l concentration of the compositions of Example 9 or were left untreated. The untreated plants were used as controls. The 45 ml compositions saturated the soil of the treated pots without significant loss through drainage into the saucers below the pots. Twenty-four hours after the treatment with the compositions, both the barley and cucumber plants in all the pots, those treated and those untreated, were inoculated with powdery mildew fungus. This was accomplished by tapping leaves of previously infected barley and cucumber plants over the treated and untreated pots containing the barley and cucumber plants, respectively, to distribute spores of the fungus over the plants tested. […] Intermediate ratings were assigned depending on the degree of disease. […] The results of the powdery mildew disease control of barley are reported under the heading of "BMS". The results for cucumber mildew control are reported under the heading "CMS".

The subject of assay [2] is Helminthosporium sativum. The assay is described as follows: Barley spot blotch, foliar treatment (HEL SAT). Format: in vivo. The note with it: Helminthosporium, foliar, 216 h, foliar, 1,000 mg/l, read-out: Percent Reduction of Disease, HEL SAT. On the procedure:
Compositions containing Compounds Nos. 1-81 were prepared by dissolving 0.24 grams of each of the compounds in 8 ml of acetone or other suitable inert solvent. Each of the resultant solutions was treated with 3 drops of TWEEN 20 (ethoxylated ethylene sorbitan monolaurate, a non-ionic surfactant)(I.C.I.), and water was added to form an emulsion. The degree of dilution with water was dictated by the desired concentration of the compound in the composition. The greater the quantity of water added, the lower the concentration of the compound in the composition, reported in milligrams per liter (mg/l) Ten plants of six day-old Barley (variety "Robust") were planted in each of a plurality of pots. Each pot was then either sprayed with one of the compositions of Example 9, at a concentration of 1,000 mg/l, or left unsprayed. The unsprayed plants were used as controls. An equal number of pots were sprayed and unsprayed. All plants, sprayed and unsprayed, were thereafter inoculated with spores of the blotch fungus Helminthosporium sativum. All inoculated plants were placed in a 99% humidity chamber for 24 hours and then placed in a greenhouse, maintained at a temperature of 21° C., for eight days. […] Percent control was computed and the results are summarized in Table II under the heading "HEL SAT".

Assay [3] has as its system Rhizoctonia solani. The assay is described as follows: Fungal growth inhibition, treated disc on agar (RHI SOL). Format: cell-based. The note with it: Rhizoctonia solani, disc dipped in 500 mg/l, 29° C., read-out: Percent Growth Inhibition, RHI SOL.
Method: The treated and untreated discs were then placed on agar plates and one of the following fungus species: Septoria nodorum (SEP NOD), Botrytis cinerea (BOT CIN), Fusarium oxysporum (FUS OXY), Pythium ultimum (PYT ULT), Rhizoctonia solani (RHI SOL), Colletotrichum gossypii (COL GOS), and Scierotinia minor (SCL MIN), was added to the center of each disc in the form of a culture plug with the fungus mat in contact with the paper of the test disc. Cercosporidium personatum (CER PER), was added to discs as a spore suspension (20,000 spores/ml) to the disc (two drops of spore suspension per disc), rather than a mycelial culture plug. The plates were then incubated at 29° C. in an oven.
With the exception of the discs containing Cercosporidium personatum, the discs were evaluated by first measuring the radius from the center of the fungus colony on the treated discs and on the untreated discs. Percent growth inhibition of each of the compounds tested was determined as a function of the difference between the radius of the fungus colony on the treated disc versus the radius of the fungus colony on the untreated disc.
The subject of assay [4] is Septoria nodorum. The assay is described as follows: Fungal growth inhibition, treated disc on agar (SEP NOD). Conditions: Parastagonospora nodorum, disc dipped in 500 mg/l, 29° C., read-out: Percent Growth Inhibition, SEP NOD. Format: cell-based.
In assay [5] the test system is Erysiphe graminis. The assay is described as follows: Powdery mildew of barley, systemic root uptake (BMS). Type of assay: in vivo. The note with it: 45 ml of 250 mg/l, 8 days after inoculation. The procedure:
as §1

In assay [6] the test system is Cercosporidium personatum. Briefly: Fungal germination and growth, treated disc on agar, scored (CER PER). Further details: key: 100: Complete inhibition of germination and growth.; 80: Nearly complete inhibition but some growth.; 50: Partial inhibition of growth or, early complete inhibition but later growth begins.; 20: Some inhibition of growth, but not significant.; 0: No inhibition of growth. Conditions: disc dipped in 500 mg/l, 29° C., numerical score 0-100, spore suspension. Type of assay: cell-based. From the text: Filter paper discs, each 11 mm. in diameter, were dipped in each of the test solutions. The discs were allowed to air dry to drive off the acetone solvent. A number of untreated discs were used as controls. The treated and untreated discs were then placed on agar plates and one of the following fungus species: Septoria nodorum (SEP NOD), Botrytis cinerea (BOT CIN), Fusarium oxysporum (FUS OXY), Pythium ultimum ([…]), Rhizoctonia solani (RHI SOL), Colletotrichum gossypii (COL GOS), and Scierotinia minor (SCL MIN), was added to the center of each disc in the form of a culture plug with the fungus mat in contact with the paper of the test disc. Cercosporidium personatum (CER PER), was added to discs as a spore suspension (20,000 spores/ml) to the disc (two drops of spore suspension per disc), rather than a mycelial culture plug. The plates were then incubated at 29° C. in an oven. In the case of the Cercosporidium personatum (CER PER) fungi, scoring was done on a numerical basis as follows: 100=Complete inhibition of germination and growth. 80=Nearly complete inhibition but some growth. 50=Partial inhibition of growth or, early complete inhibition but later growth begins. 20=Some inhibition of growth, but not significant. 0=No inhibition of growth. The results of all the above tests appear in Table III below under the headings "SEP NOD," "BOT CIN," "FUS OXY," "[…]" "COL GOS" and "CER PER".

The test system of assay [7] is Pyricularia oryzae. Briefly: whole plant or invertebrate. Conditions: Pyricularia oryzae, in Hordeum vulgare, foliar, 216 h, read-out: Percent Reduction of Disease, PYR ORY, barley, foliar, 1,000 mg/l. Format: in vivo.
Assay [8] relates to Erysiphe graminis. Briefly: Powdery mildew in barley, foliar application (ERY GRA). Format: in vivo. Conditions: Blumeria graminis, foliar, 192 h, foliar, 1,000 mg/l, 8 days after inoculation, read-out: Percent Reduction of Disease, ERY GRA. On the procedure:
Compositions containing Compounds Nos. 1-81 were prepared by dissolving 0.24 grams of each of the compounds in 8 ml of acetone or other suitable inert solvent. Each of the resultant solutions was treated with 3 drops of TWEEN 20 (ethoxylated ethylene sorbitan monolaurate, a non-ionic surfactant)(I.C.I.), and water was added to form an emulsion. The degree of dilution with water was dictated by the desired concentration of the compound in the composition. The greater the quantity of water added, the lower the concentration of the compound in the composition, reported in milligrams per liter (mg/l) Ten plants of "Robust" variety barley were planted in each of a plurality of pots. Each pot was then either sprayed with one of the compositions of Example 9, at a composition concentration of 1,000 mg/l, or left unsprayed. For each pot sprayed, one pot was left unsprayed as a control. After the leaves of the sprayed pots were dried, the sprayed pots and the unsprayed control pots were placed in a greenhouse maintained at 21° C. All the pots were then inoculated with barley powdery mildew fungus, Erysiphe graminis. This inoculation was accomplished by distributing spores of the fungus over the leaves of the plants to be tested from plants which had previously been infected with the mildew disease. […] Again, percent control was computed by comparing the treatment scores with the scores of the untreated controls. The results are summarized in Table II under the heading "ERY GRA".

Assay [9] deals with Fusarium oxysporum. The assay is described as follows: Fungal growth inhibition, treated disc on agar (FUS OXY). Format: cell-based. The note with it: Fusarium oxysporum, disc dipped in 500 mg/l, 29° C., read-out: Percent Growth Inhibition, FUS OXY.

For the compound `N#CC(CCc1ccccc1)(CCc1ccccc1)c1cccnc1` [A, reference compound], the “Percent Reduction of Disease, CMS” value in assay [1] is recorded as 50%. Moreover, the pest or weed control at 1000 µg/mL was found to be 60% in assay [2], 10% in [7] and 0% in assay [8]. The inhibition at 500 µg/mL came to 10% in assay [3], 0% in [4] and 10% in assay [9]. In [5], the “Percent Reduction of Disease, BMS” value worked out at 15%. Besides, the “CER PER inhibition score” value in assay [6] turned out to be 0.

For the compound `CC(C)(C)c1ccc(CC(C#N)(Cc2ccc(C(C)(C)C)cc2)c2cccnc2)cc1` [B, reference compound], the “Percent Reduction of Disease, CMS” value in [1] is recorded as 50%. Moreover, the pest or weed control at 1000 µg/mL turned out to be 0% in assay [2] and 15% in [8]. The inhibition at 500 µg/mL in assay [3] was found to be 15%; in [4], 10%; in assay [9], 0%. Also, the “Percent Reduction of Disease, BMS” value in assay [5] is listed as 10%. Besides, the “CER PER inhibition score” value in assay [6] stood at 0.

Consider `CCCC(C#N)(CCc1ccccc1)c1cccnc1` (stereo not shown) [Compound 1], for which the “Percent Reduction of Disease, CMS” value in assay [1] stood at 0%. Besides, the pest or weed control at 1000 µg/mL stood at 65% in assay [2], 0% in [7] and 100% in [8]. Moreover, the inhibition at 500 µg/mL in assay [3] is 95%; in [4], 0%; in assay [9] it was 97%. For the same compound, the “Percent Reduction of Disease, BMS” value in assay [5] turned out to be 60%. Moreover, the “CER PER inhibition score” value in assay [6] is reported as 100.

On to `CCCCCCCC(C#N)(CCc1ccccc1)c1cccnc1` (stereo not shown) [Compound 2], for which the “Percent Reduction of Disease, CMS” value in assay [1] came to 0%. Besides, the pest or weed control at 1000 µg/mL was 80% in assay [2], 45% in assay [7] and 100% in [8]. For the same compound, the inhibition at 500 µg/mL in assay [3] turned out to be 0%; in assay [4], 0%; in assay [9] it was 30%. The “Percent Reduction of Disease, BMS” value in [5] came out at 0%. For the same compound, the “CER PER inhibition score” value in assay [6] is listed as 100.

Regarding `CCCCCC(C#N)(CCc1ccccc1)c1cccnc1` (stereo not shown) [Compound 3], the “Percent Reduction of Disease, CMS” value in assay [1] came to 35%. For the same compound, the pest or weed control at 1000 µg/mL in assay [2], in [7] and in [8] was 100% each time. The inhibition at 500 µg/mL in [3] stood at 10%; in assay [4], 86%; in [9], 0%. Also, the “Percent Reduction of Disease, BMS” value in assay [5] is recorded as 35%. Moreover, the “CER PER inhibition score” value in [6] worked out at 100.

Consider `CCCCC(C#N)(CCc1ccc(C)cc1)c1cccnc1` (stereo not shown) [Compound 34], for which, in [1], the “Percent Reduction of Disease, CMS” value worked out at 20%. The pest or weed control at 1000 µg/mL in assay [2] came to 100%; in assay [7] it was 0%; in [8], 100%. Also, the inhibition at 500 µg/mL in [4] and in assay [9] was 100% in each case. In assay [5], the “Percent Reduction of Disease, BMS” value stood at 0%. For the same compound, in assay [6], the “CER PER inhibition score” value came to 0.

With `C=C(Cl)CC(C#N)(CCc1ccc(F)cc1)c1cccnc1` (stereo not shown) [Compound 65], the “Percent Reduction of Disease, CMS” value in assay [1] is reported as 0%. Further, the pest or weed control at 1000 µg/mL in assay [2] came to 100%; in [8] it was 85%. Also, the inhibition at 500 µg/mL in [3] stood at 30%; in [4], 100%; in [9], 100%. Further, in [5], the “Percent Reduction of Disease, BMS” value was 0%. In assay [6], the “CER PER inhibition score” value came out at 0.

For the compound `Cc1ccc(CCC(C#N)(CCCF)c2cccnc2)cc1` (stereo not shown) [Compound 81], the “Percent Reduction of Disease, CMS” value in assay [1] came to 0%. Besides, the inhibition at 500 µg/mL in assay [3] came out at 5%; in assay [4], 40%; in assay [9], 20%. In [5], the “Percent Reduction of Disease, BMS” value is on record as 0%. Moreover, in assay [6], the “CER PER inhibition score” value was 0. Moreover, in [8], the pest or weed control at 1000 µg/mL was found to be 70%.
